Assay results reported in paper PMC5390772 (Neuropharmacology, 2017).

Columns and labels:
α7 nACh receptor Q55C = type: binding, chick
Method: (§1) Mutagenesis was performed using the QuikChange method (Agilent Technologies Inc., CA, USA) to substitute amino acids throughout each of the binding loops A – F (Fig. 1). The α7 nACh-5-HT3 subunit cDNA was as described by Bertrand ([Eiselé et al., 1993]) and was cloned into pcDNA3.1 for expression in HEK293 cells. Human 5-HT3A cDNA (accession number: P46098) and mouse 5-HT3A cDNA (Q6J1J7) were cloned into the same vector. Cells were transiently transfected with this cDNA using either polyethyleneimine (PEI: 25 kDa, linear, powder, Polysciences Inc., Eppelheim, Germany) or Lipofectamine 2000 (Life Technologies, CA, USA) according to the manufacturer's instructions. 30 μl of PEI (1 mg ml^−1), 5 μg cDNA and 1 ml DMEM/F12 were incubated for 10 min at room temperature, added drop wise to a 90 mm plate of 70–80% confluent HEK293 cells, and incubated for 2–3 days before use.
(§2) Human embryonic kidney (HEK) 293 cells were grown on 90 mm round tissue culture plates as monolayers in DMEM/F12 (Life Technologies) supplemented with 10% fetal bovine serum (FBS; Sigma Aldrich) at 37 °C in a moist atmosphere containing 5% CO2.
(§3) Transfected HEK 293 cells were scraped into 0.6 ml of ice-cold 10 mM HEPES buffer (pH 7.4) and stored frozen. After thawing, they were washed with HEPES buffer, homogenised by passage through a 21 G needle, and 50 μg of cell suspension incubated in 0.5 ml HEPES buffer containing [^3H]epibatidine (55.8 Ci/mmol, Waltham, MA). Non-specific binding was determined using 300 μM (−)-nicotine. Equilibrium reactions were incubated on ice for at least 1 h. Incubations were terminated by vacuum filtration onto Whatman GF/B filters wetted with 0.3% polyethyleneimine, followed by two rapid washes with 2.5 ml ice cold buffer. Radioactivity was determined by scintillation in Ultima Gold XR (Perkin Elmer) using a Tri-Carb 2100 TR (PerkinElmer) scintillation counter. Final counts were monitored to ensure that binding never exceeded 10% of the added concentrations of radioligands.
(§4) All data were analysed using GraphPad Prism v5. Individual saturation binding experiments were fitted to Eq. (1):(1) […] where Bmax is maximum binding at equilibrium, Kd is the equilibrium dissociation constant and [L] is the free concentration of radioligand. Values from individual experiments were averaged to yield the mean ± sem. Affinities were compared using 1-way ANOVA and a Dunnett's Post-Test.

[1] = biological target: T1, wild type α7 nACh receptors (UniProt P22770+P23979, M226I/T225I); type: binding, chick; details: α7 nACh-5-HT3 chimaera in HEK 293 cells
T1 construct: directed against the 5-HT3 region of the chimaeric receptor; expressed in transfected cells; host or cells: HEK293
T1 sequence (P22770+P23979 fused P22770:T225I/P22770:M226I): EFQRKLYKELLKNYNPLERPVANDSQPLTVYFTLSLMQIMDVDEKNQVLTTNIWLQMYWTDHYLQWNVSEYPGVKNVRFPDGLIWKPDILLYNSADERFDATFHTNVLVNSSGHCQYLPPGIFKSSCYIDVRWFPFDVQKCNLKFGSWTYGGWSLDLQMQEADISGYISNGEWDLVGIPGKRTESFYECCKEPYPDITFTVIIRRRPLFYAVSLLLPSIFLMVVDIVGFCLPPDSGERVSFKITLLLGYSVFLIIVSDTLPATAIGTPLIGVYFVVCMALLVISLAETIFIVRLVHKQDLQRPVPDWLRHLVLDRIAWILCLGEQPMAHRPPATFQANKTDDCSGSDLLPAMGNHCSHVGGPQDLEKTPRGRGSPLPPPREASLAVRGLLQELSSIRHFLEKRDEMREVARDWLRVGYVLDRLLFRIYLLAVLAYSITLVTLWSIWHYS
Method: as §1, §2, §3, §4

α7 nACh receptor Q114C = type: binding, chick
Method: as §1, §2, §3, §4

α7 nACh receptor L106C = type: binding, chick
Method: as §1, §2, §3, §4

α7 nACh receptor D160C = type: binding, chick
Method: as §1, §2, §3, §4

α7 nACh receptor L116C = type: binding, chick
Method: as §1, §2, §3, §4

α7 nACh receptor S162C = type: binding, chick
Method: as §1, §2, §3, §4

[2] = biological target: T2, wild type α7 nACh receptors (UniProt P22770+P23979); type: binding, chick
T2 construct: directed against the 5-HT3 region of the chimaeric receptor; expressed in transfected cells; host or cells: HEK293
T2 sequence (P22770+P23979 fused P22770:T225I/P22770:M226I): as above
Method: as §1, §2, §3, §4

α7 nACh receptor C187A = type: binding, chick
Method: as §1, §2, §3, §4

α7 nACh receptor S144C = type: binding, chick
Method: as §1, §2, §3, §4

α7 nACh receptor T146C = type: binding, chick
Method: as §1, §2, §3, §4

α7 nACh receptor C186A = type: binding, chick
Method: as §1, §2, §3, §4

human 5-HT3 receptors [3] = biological target: T3, human 5-HT3 receptors (Homo sapiens, UniProt P46098); type: binding; details: concentration of up to 25 nM
T3 construct: expressed in transfected cells; host or cells: HEK293
T3 sequence (P46098 24-478): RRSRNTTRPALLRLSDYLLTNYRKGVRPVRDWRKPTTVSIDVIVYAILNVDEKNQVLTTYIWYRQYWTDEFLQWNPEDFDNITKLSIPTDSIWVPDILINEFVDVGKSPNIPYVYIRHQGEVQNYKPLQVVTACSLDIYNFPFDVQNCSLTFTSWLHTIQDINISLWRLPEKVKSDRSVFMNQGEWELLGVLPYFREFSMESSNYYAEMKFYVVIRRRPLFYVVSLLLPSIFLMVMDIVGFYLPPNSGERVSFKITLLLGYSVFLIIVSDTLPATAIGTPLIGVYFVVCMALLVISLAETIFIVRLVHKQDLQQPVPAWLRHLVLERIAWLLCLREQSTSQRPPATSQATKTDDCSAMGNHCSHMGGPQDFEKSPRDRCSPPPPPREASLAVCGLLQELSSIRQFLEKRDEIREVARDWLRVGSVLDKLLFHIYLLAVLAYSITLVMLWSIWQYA
Method: as §1
(§5) Transfected HEK 293 cells were scraped into 0.6 ml of ice-cold 10 mM HEPES buffer (pH 7.4) and stored frozen. […] Non-specific binding was determined using 300 μM (−)-nicotine. […] Radioactivity was determined by scintillation in Ultima Gold XR (Perkin Elmer) using a Tri-Carb 2100 TR (PerkinElmer) scintillation counter. Final counts were monitored to ensure that binding never exceeded 10% of the added concentrations of radioligands. […]

mouse 5-HT3 receptors [4] = biological target: mouse 5-HT3 receptors (Mus musculus, UniProt P23979); type: binding; details: concentration of up to 25 nM
Method: as §1, §5
Target sequence in this assay (P23979 24-246 limits assumed): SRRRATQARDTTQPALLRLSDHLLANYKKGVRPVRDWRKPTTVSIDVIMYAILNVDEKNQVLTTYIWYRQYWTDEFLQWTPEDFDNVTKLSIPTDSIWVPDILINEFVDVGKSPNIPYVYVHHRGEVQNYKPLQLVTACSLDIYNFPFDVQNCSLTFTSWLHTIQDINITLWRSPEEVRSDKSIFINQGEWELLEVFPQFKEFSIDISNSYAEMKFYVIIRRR

α7 nACh receptor Y191C = biological target: α7 nACh receptor Y191C; design: species or system chick; details: no saturable binding
Method: as §1, §2, §3, §4

α7 nACh receptor W145C = biological target: α7 nACh receptor W145C; design: species or system chick; details: no saturable binding
Method: as §1, §2, §3, §4

α7 nACh receptor W53C = biological target: α7 nACh receptor W53C; design: species or system chick; details: no saturable binding
Method: as §1, §2, §3, §4

α7 nACh receptor Y91C = biological target: α7 nACh receptor Y91C; design: species or system chick; details: no saturable binding
Method: as §1, §2, §3, §4

α7 nACh receptor Y184C = biological target: α7 nACh receptor Y184C; design: species or system chick; details: no saturable binding
Method: as §1, §2, §3, §4

α7 nACh receptor N104C = biological target: α7 nACh receptor N104C; design: species or system chick; details: no saturable binding
Method: as §1, §2, §3, §4

α7 nACh receptors Y184F = tested on: α7 nACh receptors Y184F; design: method as in Li et al., 2011; details: Y184F ref Li et al., 2011; cited from earlier work
α7 nACh receptors L116A = tested on: α7 nACh receptors L116A; design: method as in Blum et al., 2013; Van Arnam et al., 2013; details: L116 Ala mutation ref Blum et al., 2013, Van Arnam et al.; cited from earlier work
α7 nACh receptors = biological target: α7 nACh receptors; design: method as in Li et al., 2011; Van Arnam et al., 2013; details: before W53 substitution ref Li et al., 2011; Van Arnam et al., 2013; cited from earlier work
α7 nACh receptors W53F = tested on: α7 nACh receptors W53F; design: method as in Li et al., 2011; Van Arnam et al., 2013; details: W53F ref Li et al., 2011; Van Arnam et al., 2013; cited from earlier work
human 5-HT3 receptors [5] = biological target: T3, human 5-HT3 receptors; assay: biochemical; type: binding
Method: as §1, §5

mouse 5-HT3 receptors [6] = biological target: T4, mouse 5-HT3 receptors (Mus musculus, UniProt P23979); assay: biochemical; type: binding
T4 construct: expressed in transfected cells; host or cells: HEK293
Method: as §1, §5
T4 sequence (P23979 24-483 isoform P23979-2 limits assumed): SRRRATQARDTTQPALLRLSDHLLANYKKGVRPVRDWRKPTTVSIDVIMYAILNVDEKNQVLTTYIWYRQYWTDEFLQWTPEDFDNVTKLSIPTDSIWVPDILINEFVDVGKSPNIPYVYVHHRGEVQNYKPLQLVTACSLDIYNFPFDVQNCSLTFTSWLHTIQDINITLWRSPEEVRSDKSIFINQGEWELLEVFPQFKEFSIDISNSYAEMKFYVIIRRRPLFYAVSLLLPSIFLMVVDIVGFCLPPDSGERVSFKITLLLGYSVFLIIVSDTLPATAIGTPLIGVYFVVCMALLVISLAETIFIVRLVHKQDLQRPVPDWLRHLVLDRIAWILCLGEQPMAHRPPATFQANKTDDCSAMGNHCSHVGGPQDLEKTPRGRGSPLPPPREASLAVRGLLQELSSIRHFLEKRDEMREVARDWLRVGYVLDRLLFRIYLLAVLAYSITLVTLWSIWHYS

α7 nACh receptors W145F = tested on: α7 nACh receptors W145F; design: method as in Li et al., 2011; details: W145F ref Li et al., 2011; cited from earlier work
α7 nACh receptors W53A = biological target: α7 nACh receptors W53A; design: method as in Li et al., 2011; Van Arnam et al., 2013; details: W53 substituted by Ala ref Li et al., 2011; Van Arnam et al., 2013; cited from earlier work

**Q.** With `Clc1ccc(C2CC3CCC2N3)cn1` (stereo not drawn) [[^3H]epibatidine] as the compound, how does the Kd (α7 nACh receptor Q55C) read?
**A.** The Kd was 6.9 nM.

**Q.** And the “pKd Mean ± SEM” value (α7 nACh receptor Q55C; loop D, HEK 293 cells)?
**A.** Its value is 8.16 ± 0.09.

**Q.** And the “pKd Mean ± SEM” value [1]?
**A.** Its value is 8.09 ± 0.06.

**Q.** What about the Kd (α7 nACh receptor Q114C) of the same compound?
**A.** Its Kd is 1.5 nM.

**Q.** And the “pKd Mean ± SEM” value (α7 nACh receptor Q114C; loop E, HEK 293 cells)?
**A.** The value was 8.82 ± 0.09.

**Q.** And the Kd (α7 nACh receptor L106C)?
**A.** Its Kd is 8.3 nM.

**Q.** What about the “pKd Mean ± SEM” value (α7 nACh receptor L106C; loop E, HEK 293 cells) of the same compound?
**A.** The value was 8.08 ± 0.12.

**Q.** What about the Kd (α7 nACh receptor D160C) of the same compound?
**A.** Its Kd is 8.7 nM.

**Q.** What about the “pKd Mean ± SEM” value (α7 nACh receptor D160C; loop F, HEK 293 cells) of the same compound?
**A.** The value was 8.06 ± 0.10.

**Q.** And the Kd (α7 nACh receptor L116C)?
**A.** The Kd was 5.1 nM.

**Q.** What about the “pKd Mean ± SEM” value (α7 nACh receptor L116C; loop E, HEK 293 cells) of the same compound?
**A.** The value was 8.29 ± 0.05.

**Q.** And the Kd (α7 nACh receptor S162C)?
**A.** Its Kd is 7.2 nM.

**Q.** And the “pKd Mean ± SEM” value (α7 nACh receptor S162C; loop F, HEK 293 cells)?
**A.** Its value is 8.14 ± 0.09.

**Q.** What about the Kd [2] of the same compound?
**A.** The Kd was 8 nM.

**Q.** What about the Kd (α7 nACh receptor C187A) of the same compound?
**A.** The Kd was 60 nM.

**Q.** What about the “pKd Mean ± SEM” value (α7 nACh receptor C187A; loop C, HEK 293 cells) of the same compound?
**A.** Its value is 7.22 ± 0.07.

**Q.** And the Kd (α7 nACh receptor S144C)?
**A.** Its Kd is 2.3 nM.

**Q.** What about the “pKd Mean ± SEM” value (α7 nACh receptor S144C; loop B, HEK 293 cells) of the same compound?
**A.** The value was 8.64 ± 0.12.

**Q.** What about the Kd (α7 nACh receptor T146C) of the same compound?
**A.** Its Kd is 9.8 nM.

**Q.** What about the “pKd Mean ± SEM” value (α7 nACh receptor T146C; loop B, HEK 293 cells) of the same compound?
**A.** The value was 8.01 ± 0.07.

**Q.** What about the Kd (α7 nACh receptor C186A) of the same compound?
**A.** Its Kd is 33 nM.

**Q.** And the “pKd Mean ± SEM” value (α7 nACh receptor C186A; loop C, HEK 293 cells)?
**A.** Its value is 7.48 ± 0.10.

**Q.** And the saturable binding (human 5-HT3 receptors [3])?
**A.** Its saturable binding is “not detected”.

**Q.** What about the saturable binding (mouse 5-HT3 receptors [4]) of the same compound?
**A.** The saturable binding was “not detected”.

**Q.** And the Kd (α7 nACh receptor Y191C)?
**A.** The Kd was over 20 nM.

**Q.** And the Kd (α7 nACh receptor W145C)?
**A.** The Kd was over 20 nM.

**Q.** What about the Kd (α7 nACh receptor W53C) of the same compound?
**A.** Its Kd is over 20 nM.

**Q.** What about the Kd (α7 nACh receptor Y91C) of the same compound?
**A.** Its Kd is over 20 nM.

**Q.** What about the Kd (α7 nACh receptor Y184C) of the same compound?
**A.** The Kd was over 20 nM.

**Q.** And the Kd (α7 nACh receptor N104C)?
**A.** Its Kd is over 20 nM.

**Q.** With `Clc1ccc(C2CC3CCC2N3)cn1` (stereo not drawn) [epibatidine] as the compound, how does the “change of affinity by mutation” value (α7 nACh receptors Y184F) read?
**A.** Its value is over 250 fold.

**Q.** And the “increase in affinity relative to wild type” value (α7 nACh receptor Q114C)?
**A.** Its value is 5 fold.

**Q.** And the “change in the EC50 by mutation” value (α7 nACh receptors L116A)?
**A.** Its value is 9 fold.

**Q.** What about the EC50 (α7 nACh receptors) of the same compound?
**A.** Its EC50 is 340 nM.

**Q.** And the “affinity change by mutation” value (α7 nACh receptors W53F)?
**A.** The value was 4 fold.

**Q.** What about the Ki (human 5-HT3 receptors [5]) of the same compound?
**A.** Its Ki is 2510 nM.

**Q.** What about the Ki (mouse 5-HT3 receptors [6]) of the same compound?
**A.** Its Ki is 12300 nM.

**Q.** What about the “reduction of affinity by mutation” value (α7 nACh receptors W145F) of the same compound?
**A.** The value was over 2200 fold.

**Q.** What about the EC50 (α7 nACh receptors W53A) of the same compound?
**A.** The EC50 was 5800 nM.
